# Publication PMC8206134, “Structural basis of mechano-chemical coupling by the mitotic kinesin KIF14” (Nature Communications, 2021)
# T1: KIF14 K735 (MT-K735) (Mus musculus, UniProt L0N7N1)
# T1 construct: core motor domain N391-L735, no neck-linker; GST tag cleaved (PreScission), E. coli BL21(DE3) pLysS; monomer; with Tubulin alpha chain (Sus scrofa, porcine brain); Tubulin beta chain (Sus scrofa, porcine brain)
# T1 sequence (L0N7N1 391-735): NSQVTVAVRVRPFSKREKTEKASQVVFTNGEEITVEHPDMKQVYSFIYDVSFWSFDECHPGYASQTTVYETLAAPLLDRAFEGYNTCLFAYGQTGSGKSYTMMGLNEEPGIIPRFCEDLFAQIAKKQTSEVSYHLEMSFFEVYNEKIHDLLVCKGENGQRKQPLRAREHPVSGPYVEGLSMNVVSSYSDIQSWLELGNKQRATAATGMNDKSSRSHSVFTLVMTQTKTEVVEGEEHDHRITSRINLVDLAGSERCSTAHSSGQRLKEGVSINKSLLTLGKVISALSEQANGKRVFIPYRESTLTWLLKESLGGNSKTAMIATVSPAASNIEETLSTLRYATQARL
# T2: KIF14 K743 (MT-K743) (Mus musculus, UniProt L0N7N1)
# T2 construct: motor domain plus 8 neck-linker residues N391-N743; GST tag cleaved (PreScission), E. coli BL21(DE3) pLysS; monomer; with Tubulin alpha chain (Sus scrofa, porcine brain); Tubulin beta chain (Sus scrofa, porcine brain)
# T2 sequence (L0N7N1 391-743): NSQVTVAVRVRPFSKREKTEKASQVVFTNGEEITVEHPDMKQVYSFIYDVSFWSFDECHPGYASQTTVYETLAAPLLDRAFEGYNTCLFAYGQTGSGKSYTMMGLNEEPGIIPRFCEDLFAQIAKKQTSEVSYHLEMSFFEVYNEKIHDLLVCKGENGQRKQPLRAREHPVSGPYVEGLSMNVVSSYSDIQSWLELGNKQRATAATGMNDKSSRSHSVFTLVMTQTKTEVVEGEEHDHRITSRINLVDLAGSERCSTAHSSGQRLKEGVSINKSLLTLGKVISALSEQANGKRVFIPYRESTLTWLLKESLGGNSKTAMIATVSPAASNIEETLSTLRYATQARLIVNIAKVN
# T3: KIF14 K748 (MT-K748) (Mus musculus, UniProt L0N7N1)
# T3 construct: motor domain plus 13 neck-linker residues N391-A748; GST tag cleaved (PreScission), E. coli BL21(DE3) pLysS; monomer; with Tubulin alpha chain (Sus scrofa, porcine brain); Tubulin beta chain (Sus scrofa, porcine brain)
# T3 sequence (L0N7N1 391-748): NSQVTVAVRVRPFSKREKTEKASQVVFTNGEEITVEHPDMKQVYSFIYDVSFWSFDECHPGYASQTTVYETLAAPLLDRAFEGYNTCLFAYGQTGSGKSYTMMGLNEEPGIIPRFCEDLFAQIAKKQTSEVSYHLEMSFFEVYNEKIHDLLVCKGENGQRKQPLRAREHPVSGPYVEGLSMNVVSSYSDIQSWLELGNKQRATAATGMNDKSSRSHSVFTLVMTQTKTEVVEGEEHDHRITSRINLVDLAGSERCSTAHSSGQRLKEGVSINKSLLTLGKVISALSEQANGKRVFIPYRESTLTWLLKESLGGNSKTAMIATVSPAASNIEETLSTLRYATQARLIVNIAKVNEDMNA
# T4: KIF14 K755 (MT-K755) (Mus musculus, UniProt L0N7N1)
# T4 construct: motor domain, neck-linker and part of first CC1 heptad N391-K755; GST tag cleaved (PreScission), E. coli BL21(DE3) pLysS; with Tubulin alpha chain (Sus scrofa, porcine brain); Tubulin beta chain (Sus scrofa, porcine brain)
# T4 sequence (L0N7N1 391-755): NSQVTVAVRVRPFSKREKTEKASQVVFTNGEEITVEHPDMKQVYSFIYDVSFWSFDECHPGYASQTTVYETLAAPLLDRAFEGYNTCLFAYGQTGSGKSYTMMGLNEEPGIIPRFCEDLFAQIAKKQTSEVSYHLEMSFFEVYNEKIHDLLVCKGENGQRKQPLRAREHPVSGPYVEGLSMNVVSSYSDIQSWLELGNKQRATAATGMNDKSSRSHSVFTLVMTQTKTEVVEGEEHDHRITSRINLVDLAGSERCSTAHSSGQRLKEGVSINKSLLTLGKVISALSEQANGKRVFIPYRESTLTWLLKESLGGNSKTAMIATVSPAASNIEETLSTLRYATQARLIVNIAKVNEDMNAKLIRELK
# Columns and labels:
# KIF14 K735 (MT-K735) [1] = target: T1, KIF14 K735 (MT-K735); assay: cryo-EM structure; format: binding; conditions: microtubule-bound; 4 mM ADP plus 2 mM AlCl3 and 10 mM KF; AlFx and Mg2+ densities near noise; open* conformation
# KIF14 K743 (MT-K743) = target: T2, KIF14 K743 (MT-K743); assay: malachite green phosphate assay; format: biochemical; conditions: 1 mM ATP, 2 uM paclitaxel-stabilised microtubules, 50 nM KIF14, 1 mM MgCl2, PIPES pH 6.8
# Source text: (§1) malachite green phosphate assay on KIF14 […] (MT-[…]) | Microtubule-stimulated ATPase rate of […], […], […], and […] constructs
# KIF14 K748 (MT-K748) = target: T3, KIF14 K748 (MT-K748); assay: malachite green phosphate assay; format: biochemical; conditions: 1 mM ATP, 2 uM paclitaxel-stabilised microtubules, 50 nM KIF14, 1 mM MgCl2, PIPES pH 6.8
# Source text: as §1
# KIF14 K735 (MT-K735) [2] = target: T1, KIF14 K735 (MT-K735); assay: malachite green phosphate assay; format: biochemical; conditions: 1 mM ATP, 2 uM paclitaxel-stabilised microtubules, 50 nM KIF14, 1 mM MgCl2, PIPES pH 6.8
# Source text: as §1
# KIF14 K755 (MT-K755) = target: T4, KIF14 K755 (MT-K755); assay: malachite green phosphate assay; format: biochemical; conditions: 1 mM ATP, 2 uM paclitaxel-stabilised microtubules, 50 nM KIF14, 1 mM MgCl2, PIPES pH 6.8
# Source text: as §1
# [3] = target: the molecule itself; assay: SEC; size-exclusion chromatography of the KIF14 constructs alone in solution, elution compared with protein standards (66, 44 and 25 kDa)
molecule,measurement,setting,value
Nc1ncnc2c1ncn2[C@@H]1O[C@H](COP(=O)(O)OP(=O)(O)O)[C@@H](O)[C@H]1O [ADP],cryo-EM structure,KIF14 K735 (MT-K735) [1],The MT-K735-AAF and MT-K743-AAF maps contain strong densities associated with ADP
Nc1ncnc2c1ncn2[C@@H]1O[C@H](COP(=O)(O)OP(=O)(O)OP(=O)(O)O)[C@@H](O)[C@H]1O [ATP],Microtubule-stimulated ATPase rate,KIF14 K743 (MT-K743),"Microtubule-stimulated ATPase rate of K735, K743, K748, and K755 constructs"
same,Microtubule-stimulated ATPase rate,KIF14 K748 (MT-K748),"Microtubule-stimulated ATPase rate of K735, K743, K748, and K755 constructs"
same,Microtubule-stimulated ATPase rate,KIF14 K735 (MT-K735) [2],"Microtubule-stimulated ATPase rate of K735, K743, K748, and K755 constructs"
same,Microtubule-stimulated ATPase rate,KIF14 K755 (MT-K755),"Microtubule-stimulated ATPase rate of K735, K743, K748, and K755 constructs"
"KIF14 construct K772 (residues Asn-391 to Asp-772) (domain or fragment, mouse, UniProt L0N7N1 391-772, looked up, KIF14, mouse (Mus musculus), full length 1674 amino acids; Dimer in solution by size-exclusion chromatography; source: E. coli BL21 (DE3) pLysS, purified (glutathione resin, cleaved on beads with PreScission protease)) NSQVTVAVRVRPFSKREKTEKASQVVFTNGEEITVEHPDMKQVYSFIYDVSFWSFDECHPGYASQTTVYETLAAPLLDRAFEGYNTCLFAYGQTGSGKSYTMMGLNEEPGIIPRFCEDLFAQIAKKQTSEVSYHLEMSFFEVYNEKIHDLLVCKGENGQRKQPLRAREHPVSGPYVEGLSMNVVSSYSDIQSWLELGNKQRATAATGMNDKSSRSHSVFTLVMTQTKTEVVEGEEHDHRITSRINLVDLAGSERCSTAHSSGQRLKEGVSINKSLLTLGKVISALSEQANGKRVFIPYRESTLTWLLKESLGGNSKTAMIATVSPAASNIEETLSTLRYATQARLIVNIAKVNEDMNAKLIRELKAEIEKLKAAQRSNRNID",stoichiometry N,[3],2
